Test results: patent US12486267B2, “Imidazo[1,2-A]pyridine and [1,2,4]triazolo[1,5-A]pyridine derivatives as TLR9 inhibitors for the treatment of fibrosis” (BRISTOL-MYERS SQUIBB COMPANY, priority 2020, dated 2025)

Legend:
Type in all cases: cell-based
human TLR9 = target: T1, human TLR9 (Homo sapiens, UniProt Q9NR96); test: TLR9 inhibition reporter assay (HEK-Blue cells, SEAP reporter); settings: HEK-Blue cells overexpressing human TLR9; stimulated with ODN2006 5 nM; 22 hour incubation; SEAP readout
T1 sequence (Q9NR96 26-1032): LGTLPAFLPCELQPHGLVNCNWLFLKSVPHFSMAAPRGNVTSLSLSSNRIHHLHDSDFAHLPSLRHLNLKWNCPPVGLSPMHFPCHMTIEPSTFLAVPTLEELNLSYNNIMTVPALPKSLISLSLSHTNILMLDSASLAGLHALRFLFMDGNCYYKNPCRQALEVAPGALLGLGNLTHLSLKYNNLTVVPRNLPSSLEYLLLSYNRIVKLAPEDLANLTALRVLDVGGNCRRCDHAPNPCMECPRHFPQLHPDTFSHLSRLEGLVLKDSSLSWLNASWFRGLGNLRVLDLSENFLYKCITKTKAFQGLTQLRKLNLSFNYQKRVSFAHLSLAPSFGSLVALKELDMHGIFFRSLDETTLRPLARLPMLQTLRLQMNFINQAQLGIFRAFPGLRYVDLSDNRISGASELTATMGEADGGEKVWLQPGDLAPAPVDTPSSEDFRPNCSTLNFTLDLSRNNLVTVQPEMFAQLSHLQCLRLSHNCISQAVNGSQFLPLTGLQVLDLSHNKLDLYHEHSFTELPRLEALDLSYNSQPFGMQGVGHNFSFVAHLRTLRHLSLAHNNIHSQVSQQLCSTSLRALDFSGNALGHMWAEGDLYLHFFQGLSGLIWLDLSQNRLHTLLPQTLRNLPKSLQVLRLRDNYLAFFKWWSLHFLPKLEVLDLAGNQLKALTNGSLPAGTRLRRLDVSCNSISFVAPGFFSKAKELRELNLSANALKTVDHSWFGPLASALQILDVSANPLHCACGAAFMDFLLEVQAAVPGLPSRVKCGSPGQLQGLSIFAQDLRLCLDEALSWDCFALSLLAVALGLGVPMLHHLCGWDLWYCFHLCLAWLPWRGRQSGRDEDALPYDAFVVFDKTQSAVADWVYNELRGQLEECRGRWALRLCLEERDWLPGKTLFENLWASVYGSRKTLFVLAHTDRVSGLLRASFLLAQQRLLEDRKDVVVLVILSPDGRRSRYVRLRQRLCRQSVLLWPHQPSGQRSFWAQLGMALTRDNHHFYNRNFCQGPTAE
Description: (§1) TLR7/8/9 Inhibition Reporter Assays
(§2) HEK-Blue™-cells (Invivogen) overexpressing human TLR7, TLR8 or TLR9 receptors were used for screening inhibitors of these receptors using an inducible SEAP (secreted embryonic alkaline phosphatase) reporter gene under the control of the […] minimal promoter fused to five NF-κB and AP-1-binding sites. Briefly, cells are seeded into Greiner 384 well plates (15000 cells per well for TLR7, 20,000 for TLR8 and 25,000 for TLR9) and then treated with test compounds in DMSO to yield a final dose response concentration range of 0.05 nM-50 μM. After a 30 minute compound pre-treatment at room temperature, the cells are then stimulated with a TLR7 ligand (gardiquimod at a final concentration of 7.5 μM), TLR8 ligand (R848 at a final concentration of 15.9 μM) or TLR9 ligand (ODN2006 at a final concentration of 5 nM) to activate NF-κB and AP-1 which induce the production of SEAP. After a 22 hour incubation at 37° C., 5% CO2, SEAP levels are determined with the addition of HEK-Blue™ Detection reagent (Invivogen), a cell culture medium that allows for detection of SEAP, according to manufacturer's specifications. The percent inhibition is determined as the % reduction in the HEK-Blue signal present in wells treated with agonist plus DMSO alone compared to wells treated with a known inhibitor.

human TLR7 = target: T2, human TLR7 (Homo sapiens, UniProt Q9NYK1); test: TLR7 inhibition reporter assay (HEK-Blue cells, SEAP reporter); settings: HEK-Blue cells overexpressing human TLR7; stimulated with gardiquimod 7.5 μM; 22 hour incubation; SEAP readout
T2 sequence (Q9NYK1 27-1049): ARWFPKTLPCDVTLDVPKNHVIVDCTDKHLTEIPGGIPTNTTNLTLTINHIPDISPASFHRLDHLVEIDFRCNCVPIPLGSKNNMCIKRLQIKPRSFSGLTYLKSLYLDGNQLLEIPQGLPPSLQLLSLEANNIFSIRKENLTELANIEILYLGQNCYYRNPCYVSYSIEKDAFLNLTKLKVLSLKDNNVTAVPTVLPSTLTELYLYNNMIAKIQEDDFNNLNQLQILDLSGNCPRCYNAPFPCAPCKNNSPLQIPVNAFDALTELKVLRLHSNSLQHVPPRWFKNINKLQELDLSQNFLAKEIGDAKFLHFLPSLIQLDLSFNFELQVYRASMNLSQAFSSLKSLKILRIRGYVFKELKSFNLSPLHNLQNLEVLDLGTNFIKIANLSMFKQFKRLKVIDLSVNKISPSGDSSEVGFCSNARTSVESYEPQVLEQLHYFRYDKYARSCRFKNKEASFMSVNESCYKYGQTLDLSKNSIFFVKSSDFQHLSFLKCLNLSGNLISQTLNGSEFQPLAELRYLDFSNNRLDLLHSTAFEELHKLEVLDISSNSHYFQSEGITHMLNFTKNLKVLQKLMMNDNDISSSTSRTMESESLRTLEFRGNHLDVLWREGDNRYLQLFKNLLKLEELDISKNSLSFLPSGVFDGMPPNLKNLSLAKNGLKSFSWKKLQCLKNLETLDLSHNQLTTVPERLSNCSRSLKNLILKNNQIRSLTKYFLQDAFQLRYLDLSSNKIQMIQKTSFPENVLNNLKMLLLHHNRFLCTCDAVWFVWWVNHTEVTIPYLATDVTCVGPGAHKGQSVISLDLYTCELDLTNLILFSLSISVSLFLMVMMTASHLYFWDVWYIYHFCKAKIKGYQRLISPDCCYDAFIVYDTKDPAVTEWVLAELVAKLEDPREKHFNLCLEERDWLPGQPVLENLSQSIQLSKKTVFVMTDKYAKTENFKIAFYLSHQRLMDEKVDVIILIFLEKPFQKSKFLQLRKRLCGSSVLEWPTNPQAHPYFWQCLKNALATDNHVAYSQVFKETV
Description: as §1, §2

human TLR8 = target: T3, human TLR8 (Homo sapiens, UniProt Q9NR97); test: TLR8 inhibition reporter assay (HEK-Blue cells, SEAP reporter); settings: HEK-Blue cells overexpressing human TLR8; stimulated with R848 15.9 μM; 22 hour incubation; SEAP readout
T3 sequence (Q9NR97 27-1041): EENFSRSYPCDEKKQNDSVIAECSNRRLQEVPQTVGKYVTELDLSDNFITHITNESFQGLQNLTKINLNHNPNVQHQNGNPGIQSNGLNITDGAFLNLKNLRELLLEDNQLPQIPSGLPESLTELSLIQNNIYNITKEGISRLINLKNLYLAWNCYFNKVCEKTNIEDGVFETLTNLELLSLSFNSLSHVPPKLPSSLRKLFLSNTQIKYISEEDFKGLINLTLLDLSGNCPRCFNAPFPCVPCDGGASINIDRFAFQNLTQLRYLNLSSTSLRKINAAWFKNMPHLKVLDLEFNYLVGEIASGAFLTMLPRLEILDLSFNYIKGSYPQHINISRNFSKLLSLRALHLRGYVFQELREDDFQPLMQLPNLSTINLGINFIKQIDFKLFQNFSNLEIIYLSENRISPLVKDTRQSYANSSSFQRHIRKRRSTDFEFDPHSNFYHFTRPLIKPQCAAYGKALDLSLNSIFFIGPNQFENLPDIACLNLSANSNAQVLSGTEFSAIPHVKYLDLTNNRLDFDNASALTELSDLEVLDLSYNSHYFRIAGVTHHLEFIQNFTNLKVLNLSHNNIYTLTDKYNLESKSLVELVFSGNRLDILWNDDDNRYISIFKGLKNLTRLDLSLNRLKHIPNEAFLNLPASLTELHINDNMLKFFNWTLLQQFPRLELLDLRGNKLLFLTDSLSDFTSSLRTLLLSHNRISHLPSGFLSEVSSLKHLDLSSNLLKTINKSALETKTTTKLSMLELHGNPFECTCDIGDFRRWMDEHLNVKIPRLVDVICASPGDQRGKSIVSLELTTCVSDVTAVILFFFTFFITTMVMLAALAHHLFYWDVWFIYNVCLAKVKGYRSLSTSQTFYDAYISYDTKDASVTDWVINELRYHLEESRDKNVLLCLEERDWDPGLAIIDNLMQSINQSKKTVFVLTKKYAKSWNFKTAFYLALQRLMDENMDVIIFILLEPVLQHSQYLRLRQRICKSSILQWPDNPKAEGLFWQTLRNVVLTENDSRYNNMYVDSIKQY
Description: as §1, §2

| Compound | IC50 (human TLR9) [nM] | IC50 (human TLR7) [nM] | IC50 (human TLR8) [nM] |
| --- | --- | --- | --- |
| COc1ccc(-c2cn3cc(C4C[C@H]5CC[C@@H](C4)N5C4CCN(C5CC5)CC4)cc(C)c3n2)cc1OC (mixture of isomers) [Example 24, 6-(8-(1-cyclopropylpiperidin-4-yl)-8-azabicyclo[3.2.1]octan-3-yl)-2-(3,4-dimethoxyphenyl)-8-methylimidazo[1,2-a]pyridine] | 102 | 2900 | > 50000 |
| COc1ccc(-c2cn3cc(C4C[C@H]5CC[C@@H](C4)N5C4CCN(CC(C)C)CC4)cc(C)c3n2)cc1OC (mixture of isomers) [Example 27, 2-(3,4-dimethoxyphenyl)-6-(8-(1-isobutylpiperidin-4-yl)-8-azabicyclo[3.2.1]octan-3-yl)-8-methylimidazo[1,2-a]pyridine] | 17 | 1400 | > 50000 |
| COc1ccc(-c2cn3cc(C4C[C@H]5CC[C@@H](C4)N5C4CCN(C(C)C)CC4)cc(C)c3n2)cc1OC (mixture of isomers) [Example 30, 2-(3,4-dimethoxyphenyl)-6-(8-(1-isopropylpiperidin-4-yl)-8-azabicyclo[3.2.1]octan-3-yl)-8-methylimidazo[1,2-a]pyridine] | 37 | 1400 | > 50000 |
| COc1ccc(-c2cn3c(n2)CCC(C2CCN(C4CCN(C(=O)C(C)C)CC4)CC2)C3)cc1OC (racemic) [Example 39, 1-(4-(2-(3,4-dimethoxyphenyl)-5,6,7,8-tetrahydroimidazo[1,2-a]pyridin-6-yl)-[1,4′-bipiperidin]-1′-yl)-2-methylpropan-1-one] | 141 | 43000 | > 50000 |
| COc1ccc(-c2cn3c(n2)CCC(C2CCN(C4CC5(C4)CN(C(C)C)C5)CC2)C3)cc1OC (racemic) [Example 45, 2-(3,4-dimethoxyphenyl)-6-(1-(2-isopropyl-2-azaspiro[3.3]heptan-6-yl)piperidin-4-yl)-5,6,7,8-tetrahydroimidazo[1,2-a]pyridine] | 90 | 2100 | > 50000 |
| COc1ccc(-c2cn3c(n2)CCC(C2CCN(C4CC5(C4)CN(C4CCC4)C5)CC2)C3)cc1OC (racemic) [Example 48, 6-(1-(2-cyclobutyl-2-azaspiro[3.3]heptan-6-yl)piperidin-4-yl)-2-(3,4-dimethoxyphenyl)-5,6,7,8-tetrahydroimidazo[1,2-a]pyridine] | 112 | 2000 | > 50000 |
| COc1ccc(-c2cn3c(n2)CCC(C2CCN(C4CC5(C4)CN(CC(C)C)C5)CC2)C3)cc1OC (racemic) [Example 52, 2-(3,4-dimethoxyphenyl)-6-(1-(2-isobutyl-2-azaspiro[3.3]heptan-6-yl)piperidin-4-yl)-5,6,7,8-tetrahydroimidazo[1,2-a]pyridine] | 114 | 18000 | > 50000 |

Continued by falling IC50 (human TLR9), values first:

| IC50 (human TLR9) [nM] | IC50 (human TLR7) [nM] | IC50 (human TLR8) [nM] | Compound |
| --- | --- | --- | --- |
| 80 | 19000 | > 50000 | COc1ccc(-c2cn3c(n2)CCC(C2CCN(C4CCN(C(=O)C5CC5)CC4)CC2)C3)cc1OC (racemic) [Example 42, cyclopropyl(4-(2-(3,4-dimethoxyphenyl)-5,6,7,8-tetrahydroimidazo[1,2-a]pyridin-6-yl)-[1,4′-bipiperidin]-1′-yl)methanone] |
| 68 | > 50000 | > 50000 | COc1ccc(-c2cn3c(n2)CCC(C2CCN(C4CC5(C4)CN(CC4CC4)C5)CC2)C3)cc1OC (racemic) [Example 51, 6-(1-(2-(cyclopropylmethyl)-2-azaspiro[3.3]heptan-6-yl)piperidin-4-yl)-2-(3,4-dimethoxyphenyl)-5,6,7,8-tetrahydroimidazo[1,2-a]pyridine] |
| 37 | 12000 | > 50000 | COc1ccc(-c2cn3c(n2)CCC(C2CCN(C4CCN(C(C)C)CC4)CC2)C3)cc1OC (racemic) [Example 34, 2-(3,4-dimethoxyphenyl)-6-(1′-isopropyl-[1,4′-bipiperidin]-4-yl)-5,6,7,8-tetrahydroimidazo[1,2-a]pyridine] |
| 26 | 4600 | > 50000 | COc1ccc(-c2cn3c(n2)CCC(C2CCN(C4CCN(CC(C)C)CC4)CC2)C3)cc1OC (racemic) [Example 31, 2-(3,4-dimethoxyphenyl)-6-(1′-isobutyl-[1,4′-bipiperidin]-4-yl)-5,6,7,8-tetrahydroimidazo[1,2-a]pyridine] |
